From US20090016990A1, “Antimicrobial Compositions” (priority 2007, published 2009)

Columns and labels:
[1] = tested on: P aeruginosa 10145; test: Synergy of Zosteric Acid (ZA) with HOCL, MIC in M9GY; format: cell-based
[2] = tested on: P aeruginosa 10145; test: Synergy of Zosteric Acid (ZA) with Kathon, MIC in M9GY; format: cell-based; settings: ZA alone
[3] = tested on: Pseudomonas aeruginosa ATCC 27853; test: MIC assay, planktonic growth, MBEC bioFILM PA panel
Protocol: The MBEC bioFILM PA panel is designed for use in determining antimicrobial agent susceptibility of both planktonic and biofilm Pseudomonas aeruginosa.
From this test, the minimum antibiotic concentration—in the presence and absence of a compound of the present invention—that will inhibit bacterial growth in solution (“MIC Assay”) is determined. The minimum antibiotic concentration—in the presence and absence of a compound of the present invention—that will prevent attachment of bacteria to a test surface (“MBEC Assay”) is determined. Approximately 1,000,000-10,000,000 bacteria attach in the absence of antibiotics; lesser numbers attach in the presence of antibiotics.
MBEC bioFilm PA panel—Panel wells are inoculated with planktonic Pseudomonas aeruginosa using a 95 peg inoculation lid. Panels and pegged lids are then incubated at 35° C. for 18 h. Planktonic susceptibility and resistance is determined by measuring inhibition and growth in the presence of antimicrobial agents after incubation. Biofilm susceptibility and resistance is determined by measuring inhibition and growth after peg sonication, biofilm bacteria recovery, then incubation for additional 18-24 h at 35° C.

[4] = tested on: Pseudomonas aeruginosa ATCC 27853; test: MBEC assay, biofilm inhibition (prevention of biofilm formation), MBEC bioFILM PA panel; format: cell-based; design: MBEC-Biofilm Inhibition, Without compound 9 / MBEC-Biofilm Inhibition, Without compound 6 / MBEC-Biofilm Inhibition, Without compound 2 / MBEC-Biofilm Inhibition, Without compound 7 / MBEC-Biofilm Inhibition, With 0.01% compound 7 in 5% EtOH/PBS / MBEC-Biofilm Inhibition, without salt of compound 2 / MBEC-Biofilm Inhibition, with 0.1% salt of compound 2 / MBEC-Biofilm Inhibition, without salt of compound 6: unit not given here; settings: for MBEC-Biofilm Inhibition, without salt of compound 2 / MBEC-Biofilm Inhibition, with 0.1% salt of compound 2: Table 9; for MBEC-Biofilm Inhibition, without salt of compound 2 / MBEC-Biofilm Inhibition, without salt of compound 6: antibiotic or antibiotic combination alone; for MBEC-Biofilm Inhibition, without salt of compound 2 / MBEC-Biofilm Inhibition, with 0.1% salt of compound 2 / MBEC-Biofilm Inhibition, without salt of compound 6 / MBEC-Biofilm Inhibition, with 0.1% salt of compound 6: value per component; for MBEC-Biofilm Inhibition, without salt of compound 2: separated by /; for MBEC-Biofilm Inhibition, with 0.1% salt of compound 2: antibiotic or combination plus 0.1% salt of compound 2; for MBEC-Biofilm Inhibition, without salt of compound 6 / MBEC-Biofilm Inhibition, with 0.1% salt of compound 6: Table 10; for MBEC-Biofilm Inhibition, with 0.1% salt of compound 6: antibiotic or combination plus 0.1% salt of compound 6; for MBEC-Biofilm Inhibition, Without compound 1 / MBEC-Biofilm Inhibition, Without compound 2 / MBEC-Biofilm Inhibition, Without compound 3 / MBEC-Biofilm Inhibition, Without compound 6 / MBEC-Biofilm Inhibition, Without compound 7 / MBEC-Biofilm Inhibition, Without compound 9: antibiotic alone
[5] = tested on: Pseudomonas aeruginosa ATCC 27853; test: MBEC assay, biofilm elimination, MBEC bioFILM PA panel; format: cell-based; design: MBEC-Biofilm Elimination, Without compound 2 / MBEC-Biofilm Elimination, With 0.01% compound 2 in 5% EtOH/PBS / MBEC-Biofilm Elimination, Without compound 7 / MBEC-Biofilm Elimination, With 0.01% compound 7 in 5% EtOH/PBS / MBEC-Biofilm Elimination, Without compound 1 / MBEC-Biofilm Elimination, With 0.01% compound 1 in 5% EtOH/PBS / MBEC-Biofilm Elimination, without salt of compound 2 / MBEC-Biofilm Elimination, with 0.1% salt of compound 2: unit not given here; settings: for MBEC-Biofilm Elimination, without salt of compound 2 / MBEC-Biofilm Elimination, with 0.1% salt of compound 2: Table 9; for MBEC-Biofilm Elimination, without salt of compound 2 / MBEC-Biofilm Elimination, without salt of compound 6: antibiotic or antibiotic combination alone; for MBEC-Biofilm Elimination, without salt of compound 2 / MBEC-Biofilm Elimination, with 0.1% salt of compound 2 / MBEC-Biofilm Elimination, without salt of compound 6 / MBEC-Biofilm Elimination, with 0.1% salt of compound 6: value per component; for MBEC-Biofilm Elimination, with 0.1% salt of compound 2: antibiotic or combination plus 0.1% salt of compound 2; for MBEC-Biofilm Elimination, without salt of compound 6 / MBEC-Biofilm Elimination, with 0.1% salt of compound 6: Table 10; for MBEC-Biofilm Elimination, with 0.1% salt of compound 6: antibiotic or combination plus 0.1% salt of compound 6; for MBEC-Biofilm Elimination, Without compound 1 / MBEC-Biofilm Elimination, Without compound 2 / MBEC-Biofilm Elimination, Without compound 3 / MBEC-Biofilm Elimination, Without compound 6 / MBEC-Biofilm Elimination, Without compound 7 / MBEC-Biofilm Elimination, Without compound 9: antibiotic alone
[6] = HOCL with ZA (Qza) 250 ppm, M9GY
[7] = HOCL with ZA (Qza) 500 ppm, M9GY
[8] = HOCL with ZA (Qza) 1000 ppm, M9GY
[9] = HOCL with ZA (Qza) 2500 ppm, M9GY
[10] = HOCL with ZA (Qza) 5000 ppm, M9GY
[11] = HOCL with ZA (Qza) 7500 ppm, M9GY
[12] = HOCL with ZA (Qza) 10000 ppm, M9GY
[13] = ZA alone, M9GY, highest value tested, used for SI calculations

Molecule: OCl [HOCl]
- MIC at 24 hours, Qhocl ([1]; HOCL alone, M9GY): 40 ppm
- MIC at 48 hours, Qhocl ([1]; HOCL alone, M9GY): 40 ppm
- MIC at 24 hours, Qhocl ([1]; HOCL with ZA (Qza) 0 ppm, M9GY): 50 ppm
- MIC at 48 hours, Qhocl ([1]; HOCL with ZA (Qza) 0 ppm, M9GY): 60 ppm
- SI-HOCL, 24 hours ([1]; HOCL with ZA (Qza) 0 ppm, M9GY): 1.25
- SI-HOCL, 48 hours ([1]; HOCL with ZA (Qza) 0 ppm, M9GY): 1.5
- MIC at 24 hours, Qhocl [1, 6]: 30 ppm
- MIC at 48 hours, Qhocl [1, 6]: 30 ppm
- SI-HOCL, 24 hours [1, 6]: 0.775
- SI-HOCL, 48 hours [1, 6]: 0.775
- MIC at 24 hours, Qhocl [1, 7]: 50 ppm
- MIC at 48 hours, Qhocl [1, 7]: 50 ppm
- SI-HOCL, 24 hours [1, 7]: 1.3
- SI-HOCL, 48 hours [1, 7]: 1.3
- MIC at 24 hours, Qhocl [1, 8]: 50 ppm
- MIC at 48 hours, Qhocl [1, 8]: 50 ppm
- SI-HOCL, 24 hours [1, 8]: 1.35
- SI-HOCL, 48 hours [1, 8]: 1.35
- MIC at 24 hours, Qhocl [1, 9]: 50 ppm
- MIC at 48 hours, Qhocl [1, 9]: 50 ppm
- SI-HOCL, 24 hours [1, 9]: 1.5
- SI-HOCL, 48 hours [1, 9]: 1.5
- MIC at 24 hours, Qhocl [1, 10]: 40 ppm
- MIC at 48 hours, Qhocl [1, 10]: 40 ppm
- SI-HOCL, 24 hours [1, 10]: 1.5
- SI-HOCL, 48 hours [1, 10]: 1.5
- MIC at 24 hours, Qhocl [1, 11]: 40 ppm
- MIC at 48 hours, Qhocl [1, 11]: 50 ppm
- SI-HOCL, 24 hours [1, 11]: 1.75
- SI-HOCL, 48 hours [1, 11]: 2
- MIC at 24 hours, Qhocl [1, 12]: 60 ppm
- MIC at 48 hours, Qhocl [1, 12]: 60 ppm
- SI-HOCL, 24 hours [1, 12]: 2.5
- SI-HOCL, 48 hours [1, 12]: 2.5

Molecule: O=C(O)/C=C/c1ccc(OS(=O)(=O)O)cc1 [ZA, Zosteric Acid]
- MIC at 24 hours, QZA [1, 13]: 10,000 ppm
- MIC at 48 hours, QZA [1, 13]: 10,000 ppm
- MIC for ZA ([1]; table note, 10,000 ppm was the highest value tested): MIC for ZA is greater than 10,000 ppm, but since it was the highest value tested it was used for SI calculations.
- QZA, MIC at 24 hours (ppm) ([2]; 24 hours): 10,000 ppm
- QZA, MIC at 48 hours (ppm) ([2]; 48 hours): 10,000 ppm

Molecule: CCC(C)(C)c1ccc(OS(=O)(=O)Cl)cc1 [compound 7]
- MIC values for several antibiotics in the presence of the compound ([3]; compound at 0.01%): reduced
- number of the 47 antibiotics or antibiotic combinations enhanced in activity ([4]; of 47): 10
- Bacterial attachment to the test surfaces in the presence of the compound ([4]; with antibiotics): completely inhibited at lower concentrations of antibiotics

Molecule: CC(C)(C)c1ccc(OS(=O)(=O)Cl)cc1 [compound 9]
- MIC values of antibiotics in the presence of the compound ([3]; antibiotics become less effective): increased

Molecule: colistin [CT]
- MBEC-Biofilm Inhibition, without salt of compound 2 [4]: >1
- MBEC-Biofilm Inhibition, with 0.1% salt of compound 2 [4]: >1
- MBEC-Biofilm Inhibition, without salt of compound 6 [4]: >1
- MBEC-Biofilm Inhibition, with 0.1% salt of compound 6 [4]: >1
- MBEC-Biofilm Inhibition, Without compound 1 [4]: >1
- MBEC-Biofilm Inhibition, Without compound 2 [4]: >1
- MBEC-Biofilm Inhibition, Without compound 3 [4]: >1
- MBEC-Biofilm Inhibition, Without compound 6 [4]: >1
- MBEC-Biofilm Inhibition, Without compound 7 [4]: >1
- MBEC-Biofilm Inhibition, Without compound 9 [4]: >1
- MBEC-Biofilm Inhibition, With 0.01% compound 1 in 5% EtOH/PBS [4]: >1
- MBEC-Biofilm Inhibition, With 0.01% compound 2 in 5% EtOH/PBS [4]: >1
- MBEC-Biofilm Inhibition, With 0.01% compound 7 in 5% EtOH/PBS [4]: >1
- MBEC-Biofilm Inhibition, With 0.05% compound 3 in 5% EtOH/PBS [4]: >1
- MBEC-Biofilm Inhibition, With 0.05% compound 6 in 5% EtOH/PBS [4]: >1
- MBEC-Biofilm Inhibition, With 0.1% w/v compound 9 in PBS [4]: >1
- MBEC-Biofilm Elimination, without salt of compound 2 [5]: >1
- MBEC-Biofilm Elimination, with 0.1% salt of compound 2 [5]: >1
- MBEC-Biofilm Elimination, without salt of compound 6 [5]: >1
- MBEC-Biofilm Elimination, with 0.1% salt of compound 6 [5]: >1
- MBEC-Biofilm Elimination, Without compound 1 [5]: >1
- MBEC-Biofilm Elimination, Without compound 2 [5]: >1
- MBEC-Biofilm Elimination, Without compound 3 [5]: >1
- MBEC-Biofilm Elimination, Without compound 6 [5]: >1
- MBEC-Biofilm Elimination, Without compound 7 [5]: >1
- MBEC-Biofilm Elimination, Without compound 9 [5]: >1
- MBEC-Biofilm Elimination, With 0.01% compound 1 in 5% EtOH/PBS [5]: 1
- MBEC-Biofilm Elimination, With 0.01% compound 2 in 5% EtOH/PBS [5]: 0.5
- MBEC-Biofilm Elimination, With 0.01% compound 7 in 5% EtOH/PBS [5]: 1
- MBEC-Biofilm Elimination, With 0.05% compound 3 in 5% EtOH/PBS [5]: >1
- MBEC-Biofilm Elimination, With 0.05% compound 6 in 5% EtOH/PBS [5]: >1
- MBEC-Biofilm Elimination, With 0.1% w/v compound 9 in PBS [5]: >1

Molecule: gentamicin [GM]
- MBEC-Biofilm Inhibition, without salt of compound 2 [4]: >2
- MBEC-Biofilm Inhibition, with 0.1% salt of compound 2 [4]: >2
- MBEC-Biofilm Inhibition, without salt of compound 6 [4]: >2
- MBEC-Biofilm Inhibition, with 0.1% salt of compound 6 [4]: >2
- MBEC-Biofilm Inhibition, Without compound 1 [4]: >2
- MBEC-Biofilm Inhibition, Without compound 2 [4]: >2
- MBEC-Biofilm Inhibition, Without compound 3 [4]: >2
- MBEC-Biofilm Inhibition, Without compound 6 [4]: >2
- MBEC-Biofilm Inhibition, Without compound 7 [4]: >2
- MBEC-Biofilm Inhibition, Without compound 9 [4]: >2
- MBEC-Biofilm Inhibition, With 0.01% compound 1 in 5% EtOH/PBS [4]: >2
- MBEC-Biofilm Inhibition, With 0.01% compound 2 in 5% EtOH/PBS [4]: >2
- MBEC-Biofilm Inhibition, With 0.01% compound 7 in 5% EtOH/PBS [4]: >2
- MBEC-Biofilm Inhibition, With 0.05% compound 3 in 5% EtOH/PBS [4]: >2
- MBEC-Biofilm Inhibition, With 0.05% compound 6 in 5% EtOH/PBS [4]: >2
- MBEC-Biofilm Inhibition, With 0.1% w/v compound 9 in PBS [4]: >2
- MBEC-Biofilm Elimination, without salt of compound 2 [5]: >2
- MBEC-Biofilm Elimination, with 0.1% salt of compound 2 [5]: >2
- MBEC-Biofilm Elimination, without salt of compound 6 [5]: >2
- MBEC-Biofilm Elimination, with 0.1% salt of compound 6 [5]: >2
- MBEC-Biofilm Elimination, Without compound 1 [5]: >2
- MBEC-Biofilm Elimination, Without compound 2 [5]: >2
- MBEC-Biofilm Elimination, Without compound 3 [5]: >2
- MBEC-Biofilm Elimination, Without compound 6 [5]: >2
- MBEC-Biofilm Elimination, Without compound 7 [5]: >2
- MBEC-Biofilm Elimination, Without compound 9 [5]: 2
- MBEC-Biofilm Elimination, With 0.01% compound 1 in 5% EtOH/PBS [5]: 2
- MBEC-Biofilm Elimination, With 0.01% compound 2 in 5% EtOH/PBS [5]: >2
- MBEC-Biofilm Elimination, With 0.01% compound 7 in 5% EtOH/PBS [5]: 2
- MBEC-Biofilm Elimination, With 0.05% compound 3 in 5% EtOH/PBS [5]: >2
- MBEC-Biofilm Elimination, With 0.05% compound 6 in 5% EtOH/PBS [5]: >2
- MBEC-Biofilm Elimination, With 0.1% w/v compound 9 in PBS [5]: >2
